Assay results reported in article PMC9822073, “Synthesis, Cytotoxic Evaluation, and Structure-Activity Relationship of Substituted Quinazolinones as Cyclin-Dependent Kinase 9 Inhibitors” (Molecules, 2022).
Like-named read-outs stand apart in the source and are kept apart here.

Legend:
MCF-7 cell line = assay: MTT metabolic (antiproliferative) assay; conditions: read-out: Cytotoxicity IC50, MCF-7, 48 h, mean ± SD
Method: The antiproliferative activity of the twenty-seven compounds was evaluated by 3-(4,5-dimethylthiazol-2-yl)-2,5-diphenyltetrazolium bromide (MTT) metabolic assay against the MCF-7 cell line, according to a previous method [26].

CDK9/cyclin T = CDK9/cyclin T (Homo sapiens, UniProt P50750); assay: In vitro luminescent CDK9 kinase assay (Kinase-Glo MAX); type: biochemical; conditions: for reduction in CDK9 inhibitory activity: compared with compound 25
Method: In vitro luminescent CDK9 kinase assay was performed as reported previously using Kinase- Glo® MAX as a detection reagent. Briefly, 5 μL of each inhibitor in concentrations ranging from 10 μM to 1 nM (10 μM, 1 μM, 0.1 μM, 0.01 μM, and 0.001 μM) and 10 μL of enzyme substrate were mixed in 20 μL of kinase assay buffer (obtained from BPS Bioscience, catalog #79334) at room temperature. Then 20 μL of 5 ng/μL CDK9/cyclin T was added to the mixture to initiate the reaction. After 45 min, 50 μL of Kinase-Glo® Max reagent was added, and the resulting mixture was incubated for 15 min at room temperature. The chemiluminescence was measured microplate reader, and IC50 values were calculated using Prism 8.0 (GraphPad Software, San Diego, CA, USA).

CDK9 = system: CDK9; parameters: method as in PMID 33142413, PMID 24150998; conditions: Figure 2; cited from earlier work
[1] = CDK9 IC50 as used for LE and LLE, read-out: IC50 (CDK9, Table 4)
[2] = negative log of the CDK9 IC50, read-out: pIC50 (converted)

Chain of CDK9/cyclin T (P50750 whole entry): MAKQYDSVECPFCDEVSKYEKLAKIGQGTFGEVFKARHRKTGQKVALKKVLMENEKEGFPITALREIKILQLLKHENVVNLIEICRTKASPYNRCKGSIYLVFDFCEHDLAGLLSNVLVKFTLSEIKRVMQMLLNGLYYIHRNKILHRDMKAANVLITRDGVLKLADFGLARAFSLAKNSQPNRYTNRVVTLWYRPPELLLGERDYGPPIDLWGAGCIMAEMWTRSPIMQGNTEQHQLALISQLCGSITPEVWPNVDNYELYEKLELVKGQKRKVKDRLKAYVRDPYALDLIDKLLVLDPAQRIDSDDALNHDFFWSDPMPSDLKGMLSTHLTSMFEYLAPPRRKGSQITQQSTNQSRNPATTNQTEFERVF
Chain of CDK9/cyclin T (O60563 whole entry partner): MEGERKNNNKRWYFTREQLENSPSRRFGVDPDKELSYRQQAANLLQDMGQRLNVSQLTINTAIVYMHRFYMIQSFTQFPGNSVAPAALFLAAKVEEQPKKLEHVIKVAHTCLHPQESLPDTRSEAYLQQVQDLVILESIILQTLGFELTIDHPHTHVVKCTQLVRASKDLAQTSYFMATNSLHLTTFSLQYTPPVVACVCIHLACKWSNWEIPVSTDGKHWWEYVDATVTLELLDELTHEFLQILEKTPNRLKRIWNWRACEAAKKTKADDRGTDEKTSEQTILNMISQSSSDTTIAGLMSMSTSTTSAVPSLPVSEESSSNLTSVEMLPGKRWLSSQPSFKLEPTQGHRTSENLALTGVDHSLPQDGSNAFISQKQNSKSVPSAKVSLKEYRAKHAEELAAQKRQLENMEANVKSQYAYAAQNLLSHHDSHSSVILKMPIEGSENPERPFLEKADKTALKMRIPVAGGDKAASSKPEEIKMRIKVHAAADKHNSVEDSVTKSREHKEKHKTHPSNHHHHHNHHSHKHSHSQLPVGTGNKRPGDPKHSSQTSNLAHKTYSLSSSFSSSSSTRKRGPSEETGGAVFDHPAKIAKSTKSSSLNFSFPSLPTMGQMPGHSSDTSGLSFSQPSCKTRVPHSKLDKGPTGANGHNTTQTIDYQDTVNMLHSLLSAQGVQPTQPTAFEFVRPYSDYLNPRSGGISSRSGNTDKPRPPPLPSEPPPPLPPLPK

Row | Structure (SMILES) | IC50 (CDK9/cyclin T; [1]) | IC50 (CDK9/cyclin T; mean ± SD, read-out: CDK9 IC50) | IC50 (MCF-7 cell line) | also measured
1 | NS(=O)(=O)c1ccc(CCn2c(=S)[nH]c3ccccc3c2=O)cc1 [Compound 1, 2-Mercapto-3-(4-sulfamoylphenethyl)quinazolin-4-one] | 644 nM | 644 ± 7 nM | 650 ± 150 nM | –
2 | NC(=O)CSc1nc2ccccc2c(=O)n1CCc1ccc(S(N)(=O)=O)cc1 [Compound 2] | 454 nM | 454 ± 6 nM | 2310 ± 390 nM | –
3 | NS(=O)(=O)c1ccc(CCn2c(SCC(=O)Nc3ccccc3)nc3ccccc3c2=O)cc1 [Compound 3] | 421 nM | 421 ± 6 nM | 820 ± 80 nM | –
4 | Cc1ccc(NC(=O)CSc2nc3ccccc3c(=O)n2CCc2ccc(S(N)(=O)=O)cc2)cc1 [Compound 4] | 788 nM | 788 ± 12 nM | 160 ± 20 nM | –
5 | CC(=O)c1ccc(NC(=O)CSc2nc3ccccc3c(=O)n2CCc2ccc(S(N)(=O)=O)cc2)cc1 [Compound 5] | 829 nM | 829 ± 14 nM | 180 ± 90 nM | –
6 | COc1ccc(NC(=O)CSc2nc3ccccc3c(=O)n2CCc2ccc(S(N)(=O)=O)cc2)cc1 [Compound 6] | 463 nM | 463 ± 7 nM | 4650 ± 1380 nM | –
7 | CCOc1ccc(NC(=O)CSc2nc3ccccc3c(=O)n2CCc2ccc(S(N)(=O)=O)cc2)cc1 [Compound 7] | 115 nM | 115 ± 2 nM | 1570 ± 40 nM | increase of CDK9 inhibitory activity (CDK9/cyclin T; compared to the hit compound 1): around 6 fold
8 | COc1cc(NC(=O)CSc2nc3ccccc3c(=O)n2CCc2ccc(S(N)(=O)=O)cc2)cc(OC)c1OC [Compound 8] | 501 nM | 501 ± 9 nM | 2480 ± 320 nM | –
9 | NS(=O)(=O)c1ccc(CCn2c(SCC(=O)Nc3ccc(Br)cc3)nc3ccccc3c2=O)cc1 [Compound 9] | 131 nM | 131 ± 2 nM | 1720 ± 260 nM | –
10 | NS(=O)(=O)c1ccc(CCn2c(SCC(=O)Nc3ccc(Cl)cc3)nc3ccccc3c2=O)cc1 [Compound 10] | 193 nM | 193 ± 3 nM | 1040 ± 70 nM | –
11 | NS(=O)(=O)c1ccc(CCn2c(SCC(=O)Nc3ccc(F)cc3)nc3ccccc3c2=O)cc1 [Compound 11] | 336 nM | 336 ± 5 nM | 3860 ± 780 nM | –
12 | NS(=O)(=O)c1ccc(CCn2c(SCC(=O)NCc3ccc(F)cc3)nc3ccccc3c2=O)cc1 [Compound 12] | 218 nM | 218 ± 4 nM | 690 ± 230 nM | –
13 | COc1ccc(CNC(=O)CSc2nc3ccccc3c(=O)n2CCc2ccc(S(N)(=O)=O)cc2)cc1 [Compound 13] | 334 nM | 334 ± 6 nM | 840 ± 150 nM | –
14 | COc1ccc(CNC(=O)CSc2nc3ccccc3c(=O)n2CCc2ccc(S(N)(=O)=O)cc2)cc1OC [Compound 14] | 229 nM | 229 ± 4 nM | 590 ± 100 nM | –
15 | CC(Sc1nc2ccccc2c(=O)n1CCc1ccc(S(N)(=O)=O)cc1)C(=O)Nc1ccccc1 (centres unmarked) [Compound 15] | 444 nM | 444 ± 7 nM | 670 ± 180 nM | –
16 | CC(Sc1nc2ccccc2c(=O)n1CCc1ccc(S(N)(=O)=O)cc1)C(=O)Nc1ccc(Cl)cc1 (centres unmarked) [Compound 16] | – | 350 ± 6 nM | 730 ± 10 nM | IC50 (CDK9/cyclin T; [2]): 347 nM
17 | CN1CC[C@H](c2c(O)cc(O)c3c(=O)cc(-c4ccccc4Cl)oc23)[C@H](O)C1 [Flavopiridol, flavopiridol, reference compound] | – | – | 40 ± 1 nM | –
18 | NS(=O)(=O)c1ccc(CCn2c(SCc3ccccc3)nc3ccccc3c2=O)cc1 [VI] | – | – | – | IC50 (CDK9): 67000 nM

Second part, led by results:

Row | IC50 (CDK9/cyclin T; [1]) | IC50 (CDK9/cyclin T; mean ± SD, read-out: CDK9 IC50) | Structure (SMILES) | IC50 (MCF-7 cell line) | also measured
19 | 639 nM | 639 ± 4 nM | O=c1[nH]cnc2ccc(I)cc12 [Compound 17] | 3880 ± 120 nM | –
20 | 296 nM | 296 ± 3 nM | O=c1[nH]c(-c2cccs2)nc2ccc(I)cc12 [Compound 18] | 21400 ± 680 nM | –
21 | 282 nM | 282 ± 3 nM | Cc1ccc(-c2nc3ccc(Cl)cc3c(=O)[nH]2)cc1 [Compound 19] | 12300 ± 390 nM | –
22 | 434 nM | 434 ± 3 nM | O=c1[nH]c(-c2ccc(Cl)cc2)nc2ccc([N+](=O)[O-])cc12 [Compound 20] | 6070 ± 190 nM | reduction in potency against CDK9 (CDK9/cyclin T; compound 20 versus compound 19): 1 fold
23 | – | 210 ± 3 nM | Cc1ccc(NC(=O)c2cccc(Br)c2)c(C(=O)O)c1 [Compound 23, 2-(3-Bromobenzamido)-5-methylbenzoic acid] | 11500 ± 370 nM | melting point: 155 to 157 °C; IC50 (CDK9/cyclin T; [2]): 209 nM
24 | 486 nM | 486 ± 4 nM | Cc1ccc2nc(-c3cccc(Br)c3)oc(=O)c2c1 [Compound 24, 2-(3-Bromophenyl)-6-methyl-4H-benzo[d][1,3]oxazin-4-one] | 10400 ± 330 nM | reduction in CDK9 inhibitory activity (CDK9/cyclin T): 3 fold
25 | 142 nM | 142 ± 1 nM | Cc1ccc2nc(-c3cccc(Br)c3)[nH]c(=O)c2c1 [Compound 25, 2-(3-Bromophenyl)-6-methylquinazolin-4(3H)-one] | 16800 ± 540 nM | –
26 | 289 nM | 289 ± 2 nM | Cc1ccc2nc(-c3cccc(Br)c3)[nH]c(=S)c2c1 [Compound 26, 2-(3-Bromophenyl)-6-methylquinazoline-4(3H)-thione] | 5210 ± 170 nM | reduction in CDK9 inhibitory activity (CDK9/cyclin T): 2 fold
27 | 835 nM | 835 ± 6 nM | Cc1ccc2nc(-c3cccc(Br)c3)n(N)c(=O)c2c1 [Compound 27, 3-Amino-2-(3-bromophenyl)-6-methylquinazolin-4(3H)-one] | 28700 ± 920 nM | reduction in CDK9 inhibitory activity (CDK9/cyclin T): approximately 6 fold
28 | – | 210 ± 2 nM | Cc1ccc2nc(-c3cccc(Br)c3)n(O)c(=O)c2c1 [Compound 28, 2-(3-Bromophenyl)-3-hydroxy-6-methylquinazolin-4(3H)-one] | 6270 ± 200 nM | IC50 (CDK9/cyclin T; [2]): 209 nM
